In US7858613B2, “Substituted benzo-condensed cycloheptanone derivatives and their use for producing drugs” (Gruenenthal GmbH, priority 2005, dated 2010):

Experiments:
[1] = biological target: T1, human CB1 receptor (Homo sapiens, UniProt P21554); experiment: Study on the human CB1 receptor, [3H]CP55,940 displacement on recombinant membranes; assay type: binding; settings: 10 μM test substance; 1 nM [3H]CP55,940; human recombinant cell membranes
T1 construct: purchased Perkin Elmer RBHCB1M
Method: V. Functional Study on the Human CB1 Receptor
50 mM TRIS (from Fluka, Cat. No. 93349); 2.5 mM EDTA (from Fluka Cat. No. 03680); 5 mM MgCl2 (from Merck, Cat. No. 1.05833); 0.5 mg/ml BSA (from Sigma Cat. No. A-2153)
The membranes (RBHCB1M, from Perkin Elmer (human recombinant cell membranes)) were supplied in aliquots of 1 ml each in dry ice and stored at −80° C. The protein concentration of the batches was around 6 mg/ml. For the test, in each case 1 ml was thawed rapidly and diluted with 7 ml of incubation buffer (1:8). 20 μl of this dilution were used in the test. This corresponded to a protein content of approx. 15 μg in the batch.
MTP from Costar® of the “U type” (assay MTP; Cat. No. 3794) was used. The pipetting sequence is reproduced in Table 1 below.
After the pipetting operation had ended, a lid was placed on the MTP and the incubation was effected at 25° C. for 90 min.
Subsequently, the samples were removed by suction with the aid of a Brandel cell harvester (model MPXRI-96T) through a GF/B Unifilter MTP (from Packard, Cat. No. 6005177) presoftened with 0.05% PEI. The samples were washed twice with 200 ml of ice-cooled incubation buffer per 96-well MTP. Thereafter, the plate was dried in a drying cabinet +60° C. for 1 h. […] After a wait time of 1 h, the plate was analyzed on a “Trilux” from Wallac.

[2] = biological target: T2, human CB2 receptor (Homo sapiens, UniProt P34972); experiment: Affinity for cannabinoid receptor CB2, [3H]-CP 55,940 displacement on HEK-293EBNA membranes; settings: 10 μM test substance; 0.33 nM [3H]-CP 55,940; percent inhibition of specific binding
T2 construct: expressed in transfected cells; host or cells: HEK-293EBNA cells (membranes)
T2 sequence (P34972 whole entry): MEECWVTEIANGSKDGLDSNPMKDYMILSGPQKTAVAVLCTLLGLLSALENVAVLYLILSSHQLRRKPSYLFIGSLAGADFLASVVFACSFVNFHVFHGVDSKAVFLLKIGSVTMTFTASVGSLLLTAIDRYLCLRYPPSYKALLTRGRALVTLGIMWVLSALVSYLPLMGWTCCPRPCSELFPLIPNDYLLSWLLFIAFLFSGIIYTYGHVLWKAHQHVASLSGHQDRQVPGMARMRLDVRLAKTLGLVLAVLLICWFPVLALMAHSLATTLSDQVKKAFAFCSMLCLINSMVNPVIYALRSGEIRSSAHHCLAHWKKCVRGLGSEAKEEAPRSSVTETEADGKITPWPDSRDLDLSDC
Description: VI. Determination of the Affinity for the Cannabinoid Receptor CB2 (CB2 Receptor):
To determine the affinity of the inventive compounds for the cannabinoid receptor, membranes from human recombinant HEK-293EBNA cells were used, which had been transfected stably with the human CB2 receptor. The radioligand used was tritium-labeled 5-(1,1-dimethylheptyl)-2-(5-hydroxypropyl)cyclohexyl)-1-alpha,2-beta,5-alpha)phenol ([3]H—CP 55,940 with 103.4 Ci/mmol, 1 mCi/ml). The determination was effected in a test buffer composed of 50 mM Tris-HCl, 2.5 mM EDTA, 5 mM MgCl2 and 1.0 mg/ml of fatty acid-free BSA. The test substances were each dissolved in DMSO.
The affinity of the inventive compounds for the CB2 receptor is determined by their ability to displace [3]H—CP 55,940 from CB2 receptors in membranes from HEK-293EBNA cells. To this end, in each case 8 μg of the membranes (20 μl of a solution from membranes in a concentration of 400 μg/ml) are incubated in wells on a microtiter plate with a 0.33 nM solution of ^[3]H-CP […] (120 Ci/mmol) in a total volume of test buffer of 200 μl at 30° C. for 90 minutes.
Subsequently, either the test substances or WIN 55212-2 to determine the unspecific binding, in each case dissolved in DMSO, are added to the wells so as to result in each case in a concentration of the corresponding substances of 10 μM.
Incubation at 30° C. is continued for a further 40 minutes. The binding reaction was ended by rapid filtration through GF/C filter paper which had been treated with 0.05% PEI using a Brandel cell harvester with 96 wells. The filters are washed nine times with 0.5 ml of ice-cooled washing buffer ([…] Tris-HCl, 5 mM MgCl2, 2.5 mM EDTA, 2% BSA, pH 7.4), air-dried and placed in scintillation fluid, and the radioactivity is determined with the aid of a scintillation counter.
The percentage displacement of the radioactive ligand ^[3]H-CP 55,940 from its binding to the CB2 receptor is reported as percent inhibition of the specific binding.

T1 sequence (P21554 whole entry): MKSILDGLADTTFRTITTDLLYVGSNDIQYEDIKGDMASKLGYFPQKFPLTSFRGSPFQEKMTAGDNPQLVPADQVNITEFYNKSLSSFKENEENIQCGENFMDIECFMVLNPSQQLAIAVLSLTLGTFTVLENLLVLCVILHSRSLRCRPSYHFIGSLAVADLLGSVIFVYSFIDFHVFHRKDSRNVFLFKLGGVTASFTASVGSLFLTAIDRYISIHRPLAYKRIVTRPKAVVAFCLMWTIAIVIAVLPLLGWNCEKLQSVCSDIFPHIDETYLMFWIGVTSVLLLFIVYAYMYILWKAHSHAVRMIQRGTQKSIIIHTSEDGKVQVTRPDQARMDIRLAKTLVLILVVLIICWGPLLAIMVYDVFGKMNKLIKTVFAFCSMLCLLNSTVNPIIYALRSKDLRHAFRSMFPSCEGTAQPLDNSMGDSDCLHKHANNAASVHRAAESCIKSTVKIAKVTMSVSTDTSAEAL

| inhibition at 10 µM [1] [%] | inhibition at 10 µM [2] [%] | Compound |
| --- | --- | --- |
| 42 | 74.6 | O=C(Nc1ccccc1)OCC1(COC(=O)Nc2ccccc2)CCSc2ccccc2C1=O [Example Compound 2, Phenylcarbamic acid 4-(phenylcarbamoyloxymethyl)-5-oxo-2,3,4,5-tetrahydro-benzo[b]thiepin-4-ylmethyl ester] |
| 47 | 76.2 | O=C(NC1CCCCC1)OCC1(COC(=O)NC2CCCCC2)CCCc2ccccc2C1=O [Example Compound 8, Cyclohexylcarbamic acid 6-(cyclohexylcarbamoyloxymethyl)-5-oxo-6,7,8,9-tetrahydro-5H-benzocyclohepten-6-ylmethyl ester] |
